In PMC7600264, “Quasi-Irreversible Inhibition of CYP2D6 by Berberine” (Pharmaceutics, 2020):
Read-outs that look alike come from different tables or passages of the source.

Assays:
CYP2C8 = target: T1, CYP2C8 (Homo sapiens, UniProt P10632); experiment: Direct CYP inhibition assay using pooled HLM
T1 sequence (P10632 1-490): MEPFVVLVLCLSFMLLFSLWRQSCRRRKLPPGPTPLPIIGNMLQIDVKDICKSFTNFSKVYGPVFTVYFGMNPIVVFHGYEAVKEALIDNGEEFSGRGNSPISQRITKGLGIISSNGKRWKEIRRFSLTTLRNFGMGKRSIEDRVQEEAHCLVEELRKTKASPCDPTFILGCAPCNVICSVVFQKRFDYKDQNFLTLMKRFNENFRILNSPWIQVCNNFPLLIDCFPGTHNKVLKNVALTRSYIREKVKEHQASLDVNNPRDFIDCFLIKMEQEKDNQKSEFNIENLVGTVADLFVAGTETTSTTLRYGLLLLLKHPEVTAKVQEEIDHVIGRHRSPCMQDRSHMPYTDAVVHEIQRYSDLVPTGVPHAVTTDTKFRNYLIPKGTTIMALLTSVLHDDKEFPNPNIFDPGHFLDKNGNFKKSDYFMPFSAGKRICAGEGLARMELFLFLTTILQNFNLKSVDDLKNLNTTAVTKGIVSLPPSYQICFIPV
Protocol: (§1) The enzyme reactions were initiated by adding NADPH (1 mM), and the mixtures were incubated at 37 °C for 5 min in a shaking water bath (100 rpm). The reaction was terminated by adding ice-cold acetonitrile (ACN) containing CBZ (100 nM) and 4-methyl-umbelliferone (300 nM) as internal standards (IS).
(§2) The chromatographic separation was performed on an Agilent 1200 series HPLC system (Agilent Technologies, Santa Clara, CA, USA) equipped with an Atlantis^TM dC18 column (2.1 × 50 mm, 3 µm; Waters Corporation, Milford, MA, USA) with a SecuityGuard^TM C18 guard column (2.0 × 4.0 mm; Phenomenex, Torrance, CA, USA). The mobile phases consisted of double-deionized water (DDW) containing 0.1% (v/v) of formic acid (A) and ACN containing 0.1% (v/v) formic acid (B). […] The sample injection volume was 10 µL, and the total run time was 9.0 min. The column and auto-sampler compartments were maintained at 30 °C and 10 °C, respectively, throughout the analysis. The detection was performed using an API4000 Q-TRAP system equipped with a Turbo V Ion Spray^TM source (Applied Biosystems, Foster City, CA, USA). The operating conditions were optimized as follows: ionization voltage: 5500 V for positive-ion mode and −4500 V for negative-ion mode; ion source temperature: 550 °C; nebulizing gas flow: 50 L/min; auxiliary gas flow: 40 L/min; and curtain gas flow: 30 L/min. The samples were analyzed via multiple reaction monitoring (MRM) mode. […] The data acquisition and processing were performed using Analyst^TM software (version 1.5.2; Applied Biosystems, Foster City, CA, USA).

CYP3A4 = CYP3A4 (Homo sapiens, UniProt P08684); experiment: Direct CYP inhibition assay using pooled HLM; settings: for IC50: direct inhibition, 95% confidence intervals in parentheses
Chain of CYP3A4 (P08684 whole entry): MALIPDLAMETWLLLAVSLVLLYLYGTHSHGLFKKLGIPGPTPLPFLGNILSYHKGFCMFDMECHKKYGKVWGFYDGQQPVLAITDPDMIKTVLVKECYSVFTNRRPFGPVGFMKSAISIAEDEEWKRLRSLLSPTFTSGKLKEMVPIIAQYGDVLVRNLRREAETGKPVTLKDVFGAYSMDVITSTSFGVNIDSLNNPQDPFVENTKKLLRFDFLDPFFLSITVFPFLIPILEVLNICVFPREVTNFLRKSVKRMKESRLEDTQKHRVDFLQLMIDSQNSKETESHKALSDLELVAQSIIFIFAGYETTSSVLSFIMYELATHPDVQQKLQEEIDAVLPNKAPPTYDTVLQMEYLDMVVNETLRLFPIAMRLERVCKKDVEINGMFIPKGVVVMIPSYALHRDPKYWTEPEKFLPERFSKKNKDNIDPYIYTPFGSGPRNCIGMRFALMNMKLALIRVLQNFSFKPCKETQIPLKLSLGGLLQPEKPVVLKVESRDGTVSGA
Protocol: as §1, §2

CYP2D6 [1] = target: T2, CYP2D6 (Homo sapiens, UniProt P10635); experiment: Direct CYP inhibition assay using pooled HLM
T2 sequence (P10635 whole entry): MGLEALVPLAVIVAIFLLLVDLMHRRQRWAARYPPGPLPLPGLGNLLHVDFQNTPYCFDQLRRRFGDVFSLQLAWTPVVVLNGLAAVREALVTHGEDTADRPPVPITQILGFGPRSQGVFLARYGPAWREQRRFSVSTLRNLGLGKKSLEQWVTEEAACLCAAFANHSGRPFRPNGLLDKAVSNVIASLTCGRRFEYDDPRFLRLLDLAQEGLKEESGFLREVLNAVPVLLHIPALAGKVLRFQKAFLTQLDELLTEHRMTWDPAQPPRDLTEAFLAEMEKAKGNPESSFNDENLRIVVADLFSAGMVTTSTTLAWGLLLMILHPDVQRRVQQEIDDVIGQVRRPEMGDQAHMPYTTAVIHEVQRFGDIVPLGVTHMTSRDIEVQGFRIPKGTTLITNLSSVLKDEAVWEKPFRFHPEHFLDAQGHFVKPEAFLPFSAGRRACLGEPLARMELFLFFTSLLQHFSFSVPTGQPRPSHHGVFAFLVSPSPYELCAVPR
Protocol: as §1, §2

CYP2C19 = CYP2C19 (Homo sapiens, UniProt P33261); experiment: Direct CYP inhibition assay using pooled HLM
Chain of CYP2C19 (P33261 whole entry): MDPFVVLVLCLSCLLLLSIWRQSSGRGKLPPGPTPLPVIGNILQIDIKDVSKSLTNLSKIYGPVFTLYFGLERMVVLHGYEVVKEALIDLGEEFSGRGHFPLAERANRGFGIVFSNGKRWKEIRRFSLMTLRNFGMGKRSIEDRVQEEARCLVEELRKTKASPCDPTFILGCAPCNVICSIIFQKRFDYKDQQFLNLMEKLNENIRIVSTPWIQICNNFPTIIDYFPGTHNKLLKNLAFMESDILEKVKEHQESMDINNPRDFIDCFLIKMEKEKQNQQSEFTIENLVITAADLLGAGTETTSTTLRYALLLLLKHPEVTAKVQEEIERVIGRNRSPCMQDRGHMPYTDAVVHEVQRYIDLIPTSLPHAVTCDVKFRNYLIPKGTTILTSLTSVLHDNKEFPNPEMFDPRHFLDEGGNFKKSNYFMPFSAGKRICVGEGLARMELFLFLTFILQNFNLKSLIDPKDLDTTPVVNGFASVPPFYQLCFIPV
Protocol: as §1, §2

[2] = Metabolic stability and metabolite formation of BBR in pooled HLM; settings: BBR 1 µM in pooled HLM with NADPH-generating system, mean ± SD
Protocol: To evaluate NADPH-dependent metabolism, BBR (1 µM) was incubated with pooled HLM (1 mg/mL) in the presence of the NADPH-regenerating system (1 mM of NADP^+, 5 mM of G6P, and 1 U/mL of G6PDH) to be a final volume of 200 µL. The reactions were quenched by adding the same volume of ice-cold ACN containing CBZ (100 nM) at 0, 7.5, 15, 30, 60, and 120 min of incubation. The incubation mixtures were centrifuged at 1000× g for 20 min at 4 °C, and the supernatants were analyzed by the LC-MS/MS system described in Section 2.2.
Meanwhile, to identify the known metabolites of BBR, an aliquot (5 µL) of the supernatant was injected into an accurate-MS system consisting of an Agilent 6530 Q-TOF LC/MS equipped with dual AJS ESI ion source (Agilent Technologies) and Agilent 1200 series HPLC system (Agilent Technologies). Chromatographic separations were performed on an Agilent Eclipse Plus C18 column (150 × 2.1 mm, 3.5 µm; Agilent Technologies) by gradient elution with a binary mobile phase consisting of DDW with 0.1% (v/v) formic acid (A) and ACN with 0.1% (v/v) formic acid (B) at a flow rate of 0.2 mL/min, where the mobile phase B was set as follows: 2% at 0 min, 20% at 15 min, and 30% at 20–25 min, followed by re-equilibration for 3 min.
In vitro metabolic stability parameters, including half-life (t1/2) and microsomal intrinsic clearance (CLint,mic), were determined according to our previous report [32]. The degradation t1/2 values of the microsomal stability studies were calculated using the following Equation (2):(2) t1/2=0.693/k, where k represents the first-order degradation rate constant. The k values were estimated by fitting a one-phase exponential decay model to the parent drug remaining (%) vs. incubation time plots using GraphPad Prism 5.0 (GraphPad Software Inc., San Diego, CA, USA).
The CLint,mic was determined using the in vitro half-life approach.

CYP2C9 = CYP2C9 (Homo sapiens, UniProt P11712); experiment: Direct CYP inhibition assay using pooled HLM
Chain of CYP2C9 (P11712 whole entry): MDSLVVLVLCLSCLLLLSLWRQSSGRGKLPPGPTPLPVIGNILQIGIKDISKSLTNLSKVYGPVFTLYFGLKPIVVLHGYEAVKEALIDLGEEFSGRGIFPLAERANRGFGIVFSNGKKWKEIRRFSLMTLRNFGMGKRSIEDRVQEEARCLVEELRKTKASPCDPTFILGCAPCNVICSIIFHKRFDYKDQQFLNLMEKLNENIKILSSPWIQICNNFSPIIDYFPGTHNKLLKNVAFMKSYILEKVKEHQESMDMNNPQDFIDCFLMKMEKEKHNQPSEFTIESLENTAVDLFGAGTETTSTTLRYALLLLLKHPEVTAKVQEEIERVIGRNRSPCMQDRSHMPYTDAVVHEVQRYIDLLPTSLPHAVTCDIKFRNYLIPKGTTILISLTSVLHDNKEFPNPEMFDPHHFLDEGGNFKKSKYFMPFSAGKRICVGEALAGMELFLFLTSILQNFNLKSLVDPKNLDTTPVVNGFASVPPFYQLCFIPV
Protocol: as §1, §2

[3] = system: CYP enzymes (range over all CYP enzymes tested); experiment: Direct CYP inhibition assay using pooled HLM, all CYP enzymes tested; type: in vitro ADME, human; settings: human, pooled human liver microsomes, pH 7.4, read-out: IC50 values, range over all CYP enzymes tested (pan-CYP inhibitory activities)
Protocol: as §1
(§3) The chromatographic separation was performed on an Agilent 1200 series HPLC system (Agilent Technologies, Santa Clara, CA, USA) equipped with an Atlantis^TM dC18 column (2.1 × 50 mm, 3 µm; Waters Corporation, Milford, MA, USA) with a SecuityGuard^TM C18 guard column (2.0 × 4.0 mm; Phenomenex, Torrance, CA, USA). The mobile phases consisted of double-deionized water (DDW) containing 0.1% (v/v) of formic acid (A) and ACN containing 0.1% (v/v) formic acid (B). […] The sample injection volume was 10 µL, and the total run time was 9.0 min. The column and auto-sampler compartments were maintained at 30 °C and 10 °C, respectively, throughout the analysis. The detection was performed using an API4000 Q-TRAP system equipped with a Turbo V Ion Spray^TM source (Applied Biosystems, Foster City, CA, USA). […] The samples were analyzed via multiple reaction monitoring (MRM) mode. […]

CYP2E1 = CYP2E1 (Homo sapiens, UniProt P05181); experiment: Direct CYP inhibition assay using pooled HLM
Chain of CYP2E1 (P05181 whole entry): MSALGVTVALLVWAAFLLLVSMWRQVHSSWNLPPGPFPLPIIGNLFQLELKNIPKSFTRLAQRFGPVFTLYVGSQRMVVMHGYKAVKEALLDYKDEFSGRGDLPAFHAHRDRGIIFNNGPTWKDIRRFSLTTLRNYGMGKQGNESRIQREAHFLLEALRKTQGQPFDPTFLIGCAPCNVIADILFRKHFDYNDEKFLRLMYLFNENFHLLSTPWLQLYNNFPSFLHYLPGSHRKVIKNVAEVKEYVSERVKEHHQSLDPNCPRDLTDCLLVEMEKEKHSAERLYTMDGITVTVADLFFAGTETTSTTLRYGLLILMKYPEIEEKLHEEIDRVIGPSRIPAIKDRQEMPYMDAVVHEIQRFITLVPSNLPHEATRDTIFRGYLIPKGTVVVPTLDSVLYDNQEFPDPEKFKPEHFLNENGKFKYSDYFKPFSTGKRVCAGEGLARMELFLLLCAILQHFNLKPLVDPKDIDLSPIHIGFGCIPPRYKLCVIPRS
Protocol: as §1, §2

CYP2A6 = target: T3, CYP2A6 (Homo sapiens, UniProt P11509); experiment: Direct CYP inhibition assay using pooled HLM
T3 sequence (P11509 1-494): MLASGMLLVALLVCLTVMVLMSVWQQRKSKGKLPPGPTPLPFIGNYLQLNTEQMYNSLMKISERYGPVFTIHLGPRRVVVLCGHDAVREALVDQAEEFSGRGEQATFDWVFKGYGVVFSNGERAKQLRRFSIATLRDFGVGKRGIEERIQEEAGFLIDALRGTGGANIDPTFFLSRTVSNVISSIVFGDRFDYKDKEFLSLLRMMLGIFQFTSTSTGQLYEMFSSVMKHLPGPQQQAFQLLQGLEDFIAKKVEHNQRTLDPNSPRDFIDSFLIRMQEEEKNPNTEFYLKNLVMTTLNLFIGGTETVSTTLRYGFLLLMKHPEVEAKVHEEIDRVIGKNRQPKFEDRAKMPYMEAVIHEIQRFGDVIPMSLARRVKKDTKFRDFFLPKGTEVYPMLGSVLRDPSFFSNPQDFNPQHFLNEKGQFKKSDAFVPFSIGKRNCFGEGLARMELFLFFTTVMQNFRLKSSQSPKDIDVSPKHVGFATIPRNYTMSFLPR
Protocol: as §1, §2

CYP1A2 = target: T4, CYP1A2 (Homo sapiens, UniProt P05177); experiment: Direct CYP inhibition assay using pooled HLM
T4 sequence (P05177 1-516): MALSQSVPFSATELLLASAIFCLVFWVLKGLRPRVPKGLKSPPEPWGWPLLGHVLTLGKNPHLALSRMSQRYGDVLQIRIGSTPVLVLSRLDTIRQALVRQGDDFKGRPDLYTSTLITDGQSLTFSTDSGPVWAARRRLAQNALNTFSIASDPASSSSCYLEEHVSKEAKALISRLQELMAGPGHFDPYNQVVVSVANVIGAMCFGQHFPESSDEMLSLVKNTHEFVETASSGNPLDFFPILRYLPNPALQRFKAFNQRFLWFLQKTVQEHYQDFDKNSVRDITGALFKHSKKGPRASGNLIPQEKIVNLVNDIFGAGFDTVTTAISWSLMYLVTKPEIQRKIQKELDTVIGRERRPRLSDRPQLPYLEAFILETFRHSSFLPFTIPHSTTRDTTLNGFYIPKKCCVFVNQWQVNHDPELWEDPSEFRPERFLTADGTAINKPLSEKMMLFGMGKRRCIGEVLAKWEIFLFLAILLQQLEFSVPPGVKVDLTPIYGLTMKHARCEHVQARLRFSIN
Protocol: as §1, §2

CYP2B6 = target: T5, CYP2B6 (Homo sapiens, UniProt P20813); experiment: Direct CYP inhibition assay using pooled HLM
T5 sequence (P20813 1-491): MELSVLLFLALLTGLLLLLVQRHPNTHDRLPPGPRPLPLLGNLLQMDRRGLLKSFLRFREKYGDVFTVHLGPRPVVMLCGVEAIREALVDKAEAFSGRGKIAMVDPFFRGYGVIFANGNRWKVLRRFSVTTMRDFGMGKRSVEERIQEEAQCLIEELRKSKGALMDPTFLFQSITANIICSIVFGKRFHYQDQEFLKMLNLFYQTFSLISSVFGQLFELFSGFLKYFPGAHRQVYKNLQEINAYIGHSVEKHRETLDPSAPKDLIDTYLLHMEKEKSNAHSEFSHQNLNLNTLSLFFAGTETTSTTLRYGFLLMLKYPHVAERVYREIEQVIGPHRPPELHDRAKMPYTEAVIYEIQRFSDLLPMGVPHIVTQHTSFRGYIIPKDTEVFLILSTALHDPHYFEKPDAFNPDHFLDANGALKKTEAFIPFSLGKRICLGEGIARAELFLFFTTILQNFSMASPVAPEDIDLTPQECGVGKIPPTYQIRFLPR
Protocol: as §1, §2

CYP2D6 [4] = target: T2, CYP2D6; experiment: Metabolism-dependent CYP2D6 inhibition assay (IC50 shift) using pooled HLM; settings: for MDI (metabolism-dependent inhibition) of CYP2D6 (in words): pre-incubation with NADPH
Protocol: Pre-incubation was performed in pooled HLM (0.2 mg/mL) added with BBR, THB, TFD, or DMB, or rhCYP2D6 (10 pmol/mL) added with BBR, with or without NADPH (1 mM) in phosphate buffer (0.1 M; pH 7.4) for 30 min. Then, the CYP2D6 substrate (5 µM of dextromethorphan) and NADPH (1 mM) were added to the mixture and incubated for another 10 min. All incubations were carried out at 37 °C in a shaking water bath (100 rpm) using eight-well tube strips placed in an 8 × 12 rack, where the final volume of each reaction mixture was 200 µL. […] The enzyme reactions were quenched by adding an aliquot (200 µL) of ice-cold ACN containing CBZ (100 nM) as an IS. The samples were centrifuged, and the concentration of CYP2D6 metabolite (i.e., dextrorphan, produced by O-demethylation of dextromethorphan) in supernatants were analyzed using the LC-MS/MS method described in Section 2.2.

[5] = type: in vitro ADME, human; settings: human, 1 µM
Protocol: Table 3. Putative M1 metabolite produced in pooled HLM incubated with thalifendine or
Precursor molecules Incubation time (min)a M1 signal at m/z 310 (103 × cps)b
Demethyleneberberine 0 107 ± 3
a Thalifendine or demethyleneberberine (1 μM) was incubated with pooled HLM in the presence of
NADPH-generating system; b Each value represents the mean ± SD for three separate samples. […]

CYP enzymes = experiment: Direct CYP inhibition assay using pooled HLM, all CYP enzymes tested; type: in vitro ADME, human; settings: read-out: IC50 values, range over all CYP enzymes tested (pan-CYP inhibitory activities)
Protocol: as §1, §3

[6] = IC50 CYP3A4 (MDZ), substrate MDZ
[7] = IC50 CYP3A4 (TST), substrate TST

| Compound | IC50 (CYP2C8) [µM] | IC50 (CYP3A4; [6]) [µM] | IC50 (CYP3A4; [7]) [µM] | IC50 (CYP2D6 [1]) [µM] | IC50 (CYP2C19) [µM] | Concentration in incubation mixture (elimination of BBR and formation of its metabolites) ([2]; 0 min) [nM] | Concentration in incubation mixture (elimination of BBR and formation of its metabolites) ([2]; 7.5 min) [nM] | Concentration in incubation mixture (elimination of BBR and formation of its metabolites) ([2]; 15 min) [nM] | Concentration in incubation mixture (elimination of BBR and formation of its metabolites) ([2]; 30 min) [nM] | Concentration in incubation mixture (elimination of BBR and formation of its metabolites) ([2]; 60 min) [nM] | Concentration in incubation mixture (elimination of BBR and formation of its metabolites) ([2]; 120 min) [nM] | IC50 (CYP2C9) [µM] | IC50 (CYP2E1) [µM] | IC50 (CYP2A6) [µM] | IC50 (CYP1A2) [µM] | IC50 (CYP2B6) [µM] | MDI (metabolism-dependent inhibition) of CYP2D6 (in words) (CYP2D6 [4]; pooled HLM) | also measured |
| --- | --- | --- | --- | --- | --- | --- | --- | --- | --- | --- | --- | --- | --- | --- | --- | --- | --- | --- |
| COc1ccc2cc3[n+](cc2c1O)CCc1cc2c(cc1-3)OCO2 [BRB, berberrubine] | 72 | 28 | 45 | 45 | 49 | 5.4 ± 0.1 | 5.6 ± 0.0 | 5.8 ± 0.1 | 6.0 ± 0.1 | 6.1 ± 0.0 | 6.2 ± 0.0 | 57 | 34 | 17 | 51 | 96 |  | IC50 at 5 min [3]: 17 to 96 µM |
| COc1cc2c(cc1O)CC[n+]1cc3c(OC)c(OC)ccc3cc1-2 [JTZ, jatrorrhizine] | 26 |  |  | 10 | > 100 | 10.4 ± 0.3 | 10.7 ± 0.1 | 10.9 ± 0.3 | 10.5 ± 0.3 | 10.0 ± 0.2 | 9.6 ± 0.2 | > 100 | 11 | > 100 | > 100 | > 100 |  |  |
| COc1c(O)ccc2cc3[n+](cc12)CCc1cc2c(cc1-3)OCO2 [TFD, thalifendine] | > 100 | > 100 | > 100 | 28 | > 100 | 5.4 ± 0.1 | 20.9 ± 0.4 | 33.3 ± 0.6 | 44.3 ± 1.0 | 50.4 ± 0.7 | 49.3 ± 1.0 | > 100 | 32 | > 100 | > 100 | > 100 | exhibited MDI | IC50 (CYP2D6 [4]; IC50 against CYP2D6, pre-incubation with NADPH, pooled HLM, 30 min pre-incubation with NADPH): 6.49 µM; IC50 (CYP2D6 [4]; IC50 against CYP2D6, pre-incubation without NADPH, pooled HLM, 30 min pre-incubation without NADPH): 20.6 µM; IC50 shift at 10 min (CYP2D6 [4]; human, pooled human liver microsomes, pH 7.4, probe dextromethorphan (5 µM)): 3.2; M1 signal at m/z 310 ([5]; 0 min): 6 ± 1 103 × cps; M1 signal at m/z 310 ([5]; 30 min): 2200 ± 125 103 × cps |
| COc1ccc2c(c1OC)CN1CCc3cc4c(cc3C1C2)OCO4 (stereo not drawn) [THB, tetrahydroberberine] |  |  |  |  |  |  |  |  |  |  |  |  |  |  |  |  | exhibited MDI | Inhibition of CYP2C8 (in words) (CYP2C8; pooled HLM, up to 100 µM): not markedly inhibited; Inhibition of CYP3A4 (in words) (CYP3A4; up to 100 µM, substrates MDZ and TST): not markedly inhibited; Fold reduction in IC50 against CYP2D6 (IC50 shift) (CYP2D6 [4]; pooled HLM, pre-incubation with vs without NADPH): 2.2 fold; IC50 (CYP2D6 [4]; read-out: IC50 against CYP2D6, pre-incubation with NADPH, pooled HLM, 30 min pre-incubation with NADPH): 0.306 µM; IC50 (CYP2D6 [4]; read-out: IC50 against CYP2D6, pre-incubation without NADPH, pooled HLM, 30 min pre-incubation without NADPH): 0.661 µM; IC50 (CYP2D6 [1]; read-out: IC50 CYP2D6, pooled HLM, direct inhibition, substrate dextromethorphan, 95% confidence intervals in parentheses): 0.97 µM; Inhibition of CYP2C19 (in words) (CYP2C19; pooled HLM, up to 100 µM): not markedly inhibited; Inhibition of CYP2C9 (in words) (CYP2C9; pooled HLM, up to 100 µM): not markedly inhibited; Inhibition of CYP2E1 (in words) (CYP2E1; pooled HLM, up to 100 µM): not markedly inhibited; Inhibition of CYP2A6 (in words) (CYP2A6; pooled HLM, up to 100 µM): not markedly inhibited; Inhibition of CYP1A2 (in words) (CYP1A2; pooled HLM, up to 100 µM): not markedly inhibited; Inhibition of CYP2B6 (in words) (CYP2B6; pooled HLM, up to 100 µM): not markedly inhibited |
| COc1ccc2c(c1O)CN1CCc3cc4c(cc3C1C2)OCO4 (stereo not drawn) [TRB, Tetrahydroberberrubine·acetate] |  |  |  |  |  |  |  |  |  |  |  |  |  |  |  |  |  | IC50 (CYP2C8; microsomes): 9.5 µM; IC50 (CYP2D6 [1]; microsomes): 3.4 µM; IC50 (CYP2C19; read-out: IC50 CYP2C19, pooled HLM, direct inhibition, 95% confidence intervals in parentheses): 5.4 µM; IC50 (CYP2C9; microsomes): 6.5 µM; IC50 (CYP enzymes): 2.7 to 9.6 µM; IC50 (CYP2E1; read-out: IC50 CYP2E1, pooled HLM, direct inhibition, 95% confidence intervals in parentheses): 2.7 µM; IC50 (CYP2A6; microsomes): 4.7 µM; IC50 (CYP1A2; microsomes): 6.9 µM; IC50 (CYP2B6; read-out: IC50 CYP2B6, pooled HLM, direct inhibition, 95% confidence intervals in parentheses): 9.6 µM |
| demethylene-TFD [M1] |  |  |  |  |  |  |  |  |  |  |  |  |  |  |  |  |  | M1 (m/z = 310) signal formed from BBR ([2]; 0 min): 1.3 ± 0.25 1000 × cps; M1 (m/z = 310) signal formed from BBR ([2]; 7.5 min): 28 ± 0.66 1000 × cps; M1 (m/z = 310) signal formed from BBR ([2]; 15 min): 80 ± 0.31 1000 × cps; M1 (m/z = 310) signal formed from BBR ([2]; 30 min): 220 ± 2.6 1000 × cps; M1 (m/z = 310) signal formed from BBR ([2]; 60 min): 540 ± 15 1000 × cps; M1 (m/z = 310) signal formed from BBR ([2]; 120 min): 1100 ± 26 1000 × cps |
